Results as given in US12251401B2, “Synthesis and antimicrobial uses of dinuclear silver(I) pyrazolates” (The Florida International University Board of Trustees, priority 2018, dated 2025).
Like-named read-outs stand apart in the source and are kept apart here.

How the values were obtained:
Pseudomonas aeruginosa = assay: Skin and soft tissue infection (SSTI) two-layer agar model, zone of inhibition around KBr pellets; format: cell-based; details: KBr pellet with 2% (w/w) of substance on P. aeruginosa lawn, incubation at 37° C. for 18 h
Description: A skin and soft tissue infection (SSTI) model was used to study the antibacterial properties of three silver complexes. In this model, two layers of agar were employed to mimic a tissue infection with a nutrient rich bottom and the soft-top layer to allow for even dispersal of bacteria. The top soft agar acts like the skin and as bacteria grow they migrate towards the bottom nutrient layer mimicking an infected tissue. Frozen samples of Pseudomonas Aeruginosa were thawed and streaked on an agar plate. A single colony was selected and grown in Luria Broth (LB) for 18 h. The suspension was diluted with LB until an A600 (absorbance) of 0.5 was reached. The soft agar bacterial suspension was prepared by adding 120 mL of the above solution to 100 mL 0.8% (w/v) agar with 1% NaCl, which had been autoclaved and cooled to 45° C. before addition. The suspension was gently vortexed and 8 mL was spread evenly on the surface of 20 mL of a 1.5% (w/v) TSB agar plate (100×15 mm^2) and allowed to solidify. The plates were incubated for 2 h at 37° C. in order for the bacteria to reach log phase before bactericidal experiments were performed.
Blank KBr pellets (typically utilized for recording IR spectra) and KBr pellets with 2% (w/w) of three complexes (1), (2) and (5), each weighing between 34 and 46 mg, were evenly mulled and pressed with a two-ton load. Three blanks, containing PTA, or 4-Cl-pzH, or PPh3, were also prepared in the same manner. Pellets were carefully placed on the plates (see Example 8) after 2 h of incubation at 37° C.
A previously developed soft tissue infection (SSTI) model has been utilized for the present antibacterial studies. […] The gradient causes the bacteria to slowly travel from the slender top layer to the nutrient-rich bottom layer, much alike what would occur in a typical skin infection.

Solubility (qualitative) = format: physicochemical
Description: All complexes provided herein were neutral and soluble in variety of organic solvents.
(§1) Both complex (5) and complex (29) were comparatively tested against P. aeruginosa.

P. aeruginosa = assay: Bacterial eradication assessed using the optical density method; format: cell-based, Pseudomonas aeruginosa
Description: FIGS. 51A-51B show the results of bacterial eradication by compounds of complex (5) and complex (29) assessed using the optical density method.
as §1

Row | Molecule | zone of bacterial clearing (zone of inhibition) (Pseudomonas aeruginosa) | other results
1 | disilver(I)-bis(μ-4-Cl-pyrazolido)tetrakis(PPh3) [complex (1)] | minimal bacterial clearance | 
2 | disilver(I)-bis(μ-4-Cl-pyrazolido)tetrakis(PTA) [complex (5)] | Visible circular zones of bacterial clearing | solubility in aqueous media (Solubility (qualitative); aqueous media): highly soluble; solubility in water and several bacterial growth media (Solubility (qualitative); water and several bacterial growth media): readily soluble; IC50, eradication of the bacterial culture (P. aeruginosa; P. aeruginosa culture, optical density, increasing concentrations): > 2000 µg/mL
3 | Clc1cn[nH]c1 [4-Cl-pzH, 4-Cl-pyrazole] | much smaller but still visible zones of bacterial growth inhibition | 
4 | C1N2CN3CN1CP(C2)C3 [PTA, 1,3,5-triazaphosphaadamantane] | much smaller but still visible zones of bacterial growth inhibition | 
5 | O=[N+]([O-])[O-].[Ag+] [AgNO3, silver nitrate] | Visible circular zones of bacterial clearing | 
6 | c1ccc(P(c2ccccc2)c2ccccc2)cc1 [PPh3, triphenylphosphine] | no zone of inhibition | 
7 | disilver(I)-bis(μ-3-methyl-pyrazolido)bis(PTA) [complex (29)] |  | solubility in water and several bacterial growth media (Solubility (qualitative)): readily soluble; eradication of the bacterial culture (P. aeruginosa; P. aeruginosa, lowest concentration tested, 31.25 μg/mL): ~90%
8 | disilver(I)-bis(μ-4-Cl-pyrazolido)(PPh3)3 [complex (2)] | minimal bacterial clearance | 
